According to patent US5100876A, “16-decarboxy-16-hydroxy derivatives of amphotericin B” (Beecham Group p.l.c., priority 1988, dated 1992):
In brackets after ≈: the same amount, converted by molar mass.

Experiments:
Candida albicans 73/079 = assay: Minimum Inhibitory Concentration (MIC) by broth dilution in microtitre tray; format: cell-based; conditions: inoculum 10^5 cells/ml, 37° C.
Description: (§1) The Minimum Inhibitory Concentration (MIC) was determined by diluting the test compound in a broth medium in a microtitre tray. The organisms, which had been grown previously in a broth medium, were diluted and added to the wells to provide a final inoculum of approximately 10^5 colony-formingunits per well. The trays were incubated at 37° C. and the turbidity of each well noted at intervals. The MIC was taken as the lowest concentration (in μg/ml) which prevented significant growth. |Minimum Inhibitory Concentration (μg/ml) |(determined after 2 and 3 days incubation) | *Inoculum 10^5 cells/ml | YNB: Yeast Nitrogen Base Broth | SAB: Sabouraud's Dextrose Broth.

[1] = system: Candida parapsilosis 937 A; assay: as above; format: cell-based; conditions: inoculum 10^5 cells/ml, 37° C.
Description: as §1

[2] = 48 h, day 2, YNB (Yeast Nitrogen Base Broth)
[3] = 72 h, day 3, YNB (Yeast Nitrogen Base Broth)

Question: For C[C@@H]1[C@H](O)[C@@H](C)/C=C/C=C/C=C/C=C/C=C/C=C/C=C/[C@H](O[C@@H]2O[C@H](C)[C@@H](O)[C@H](N)[C@@H]2O)C[C@@H]2O[C@](O)(C[C@@H](O)C[C@@H](O)[C@H](O)CC[C@@H](O)C[C@@H](O)CC(=O)O[C@H]1C)C[C@H](O)[C@H]2CO [Example 4, 16-Decarboxy-16-hydroxymethylamohotericin B], which MIC (Candida albicans 73/079; [2]) is on record?
Answer: The MIC was 1 µg/mL (≈ 1.1 µM).

Question: And the MIC (Candida albicans 73/079; [3])?
Answer: Its MIC is 2 µg/mL (≈ 2.2 µM).

Question: What about the MIC (Candida albicans 73/079; Candida albicans, 73/079, 48 h, day 2, SAB (Sabouraud's Dextrose Broth)) of the same molecule?
Answer: Its MIC is 1 µg/mL (≈ 1.1 µM).

Question: What about the MIC (Candida albicans 73/079; Candida albicans, 73/079, 72 h, day 3, SAB (Sabouraud's Dextrose Broth)) of the same molecule?
Answer: The MIC was 1 µg/mL (≈ 1.1 µM).

Question: And the MIC ([1]; 937A, 48 h, day 2, SAB (Sabouraud's Dextrose Broth))?
Answer: Its MIC is 1 µg/mL (≈ 1.1 µM).

Question: And the MIC ([1]; 937A, 72 h, day 3, SAB (Sabouraud's Dextrose Broth))?
Answer: Its MIC is 2 µg/mL (≈ 2.2 µM).

Question: And the MIC [1, 2]?
Answer: Its MIC is 8 µg/mL (≈ 8.79 µM).

Question: And the MIC [1, 3]?
Answer: Its MIC is 8 µg/mL (≈ 8.79 µM).
